Experimental data taken from the NIST ThermoML archive (doi:10.1016/j.fluid.2014.02.027).

Settings: Liquid; for vapor or sublimation pressure: Closed cell (Static) method

FC(F)(F)C(F)(F)C(F)(C(F)(F)C(F)(F)F)C(F)(C(F)(F)F)C(F)(F)F [perfluoro-2-methyl-3-ethylpentane]
Settings	Critical pressure [kPa]	Critical temperature [K]	vapor or sublimation pressure [kPa]
358.2 K	–	–	59
368.19 K	–	–	82
378.2 K	–	–	111
388.17 K	–	–	146
398.19 K	–	–	191
408.13 K	–	–	245
418.15 K	–	–	312
428.16 K	–	–	391
438.11 K	–	–	484
448.07 K	–	–	593
458.05 K	–	–	720
468 K	–	–	866
473 K	–	–	947
477.98 K	–	–	1034
482.95 K	–	–	1127
487.89 K	–	–	1225
492.92 K	–	–	1332
497.89 K	–	–	1447
502.9 K	–	–	1571
Direct measurement	1685	–	–
Visual observation in an unstirred cell	–	507.12	–

FC(F)(F)C(F)(F)C(F)(C(F)(C(F)(F)F)C(F)(F)F)C(F)(C(F)(F)F)C(F)(F)F
Settings	vapor or sublimation pressure [kPa]
364.58 K	35
368.2 K	40
373.47 K	48
378.29 K	56
388.47 K	77
398.2 K	103
408.48 K	137
418.26 K	176
428.22 K	226
438.31 K	286
448.23 K	357
458.16 K	438
468.16 K	536
478.24 K	649
488.03 K	778
498.02 K	928
503.12 K	1014
507.94 K	1104
